# According to patent US20250034165A1, “COMPOUND CONTAINING CYCLOALKYL OR HALOALKYL” (CHIA TAI TIANQING PHARMACEUTICAL GROUP CO., LTD., priority 2021, published 2025):
# Like-named read-outs stand apart in the source and are kept apart here.
# Columns and labels:
# [1] = system: BAF3-EGFR (del19/T790M/C797S) cells; assay: Inhibition of proliferation of BAF3-EGFR (Del19/T790M/C797S) cells, CCK-8; assay type: cell-based; conditions: Ba/F3 EGFR-Del19/T790M/C797S, 72 h, read-out: BAF3(EGFR T790M Del19 C797S) cell inhibitory activity IC50
# Experimental: (§1) A flask of BAF3-EGFR (del19/T790M/C797S) cells in the logarithmic growth phase and good conditions was taken, and the cells were collected and added to a centrifuge tube. 20 μL of cells were taken and counted, and the required number of cells (mL) was pipetted and centrifuged at 1200 rpm for 3 min. The supernatant was discarded, and an appropriate amount of plating medium (RPMI medium+10% FBS) was added to adjust the cell density to 1.0×10^5 cells/mL. The cells were seeded on a 96-well plate at 100 μL/well using a multi-channel pipette and cultured in a cell incubator at 37° C., 5% CO2 with saturated humidity. After overnight incubation, compounds were loaded using a nanoliter pipettor, 2 duplicate wells were set for each concentration, and cells without compound added were used as negative controls.
# (§2) Inhibition rate (%)=(mean value of negative control group-mean value of experimental group)/(mean value of negative control group−mean value of blank group)×100%.
# (§3) A dose-response curve was fitted by four-parameter analysis, with the logarithm of compound concentration serving as abscissa and inhibition rate serving as ordinate, such that IC50 was calculated.
# [2] = biological target: EGFR (d746-750 (d19)/T790M) (Homo sapiens (Human), UniProt P00533, DEL746-750/T790M); assay: Inhibitory activity for EGFR (d746-750 (d19)/T790M) kinase; assay type: biochemical; conditions: ATP 5 μM
# Experimental: 1.3 Screening for Inhibitory Activity for EGFR (d746-750 (d19)/T790M) Kinase
# (§4) A 50 ng/μL EGFR (d746-750/T790M, Carna) stock solution was diluted with a kinase buffer (50 mM HEPES, 10 mM MgCl2, 2 mM DTT, 1 mM EGTA, 0.01% Tween 20), and 6 μL of 1.67× working solution at 0.005 ng/μL (final concentration: 0.003 ng/μL) was added to each well. Different compounds dissolved in DMSO were added to the wells using a nanoliter pipettor, resulting in the final concentrations of the compounds of 10 nM to 0.0024 nM (4-fold gradient for 7 concentrations in total), and blank control wells (without enzyme) and negative control wells (with enzyme, plus vehicle DMSO) were set, 2 replicate wells for each concentration. After enzyme was reacted with the compound or vehicle for 30 min, 5×ATP at 25 μM (final concentration: 5 μM, Sigma) prepared with a kinase buffer was mixed with 5× substrate at 0.5 μM (final concentration: 0.1 μM, ULight-poly GT, PerkinElmer) at a ratio of 1:1 (v:v), and the mixture was added to each well at 4 μL/well. After being sealed with a film, the plate was incubated at room temperature for 2 h, and then 5 μL of 4×EDTA at 40 mM (final concentration: 10 mM) was added to each well. After the plate was incubated for 5 min at room temperature, 5 μL of 4× detection reagent at 8 nM (final concentration: 2 nM, Eu-anti-phospho-tyrosine antibody, PerkinElmer) was added to each well. After being incubated at room temperature for 1 h, the plate was read using a PerkinElmer Envision multi-mode microplate reader (excitation: 320 nm, emission: 665 nm), and IC50 was calculated by four-parameter fitting.
# [3] = system: BAF3-EGFR (L858R/T790M/C797S) cells; assay: Inhibition of proliferation of BAF3-EGFR (L858R/T790M/C797S) cells, CCK-8; assay type: cell-based; conditions: Ba/F3 EGFR, 72 h, read-out: BAF3(EGFR T790M L858R C797S) cell inhibitory activity IC50
# Experimental: as §1, with “EGFR (L858R/T790M/C797S)” for “BAF3-EGFR (del19/T790M/C797S)”, “1.5×10^5” for “1.0×10^5”
# as §2, §3
# [4] = biological target: EGFR (d746-750/T790M/C797S) (Homo sapiens (Human), UniProt P00533, C797S/DEL746-750/T790M); assay: Inhibitory activity for EGFR (d746-750/T790M/C797S) kinase; assay type: biochemical; conditions: ATP 5 μM; read-out: EGFR(d19/T790M/C797S) (IC50)
# Experimental: 1.5 Screening for Inhibitory Activity for EGFR (d746-750/T790M/C797S) Kinase
# as §4, with “(d746-750/T790M/C797S, BPS)” for “(d746-750/T790M, Carna)”, “0.05” for “0.005”, “0.03” for “0.003”
# [5] = In vivo pharmacokinetics in ICR mice; conditions: for AUC(0-inf) / AUC(0-t) / MRT last / half-life / bioavailability / Cmax / Tmax: mouse, plasma; for AUC(0-t): read-out: AUC(0-t); for MRT last: read-out: MRT(0-t); for half-life: read-out: T½ (converted); for bioavailability: 10 mg/kg, PO vs IV; for Cmax: read-out: Cmax; for Tmax: read-out: Tmax
# Experimental: The animals to be tested (ICR mice) were fasted for 12 h before administration and food was provided 4 h after administration, and water was freely drunk before and after the experiment and during the experiment.
# After intragastric administration, about 0.1 mL of blood was collected from the orbit at 0 min, 15 min, 30 min, 1 h, 2 h, 4 h, 6 h, 8 h, 10 h, and 24 h. After anticoagulation with EDTA-K2, blood samples were transferred to a centrifuge within 30 min, and centrifuged at 4000 rpm for 10 min at 4° C. to separate the plasma. All the plasma samples were collected and immediately stored at −20° C. for testing.
# 300 μL of acetonitrile solution containing an internal standard ([…] diazepam) was added to 20 μL of the plasma sample to be tested and a standard curve sample. The mixture was shaken and homogeneously mixed for 5 min, and centrifuged at 12,000 rpm for 10 min. 70 μL of supernatant was taken and diluted with 70 μL of ultrapure water. After being mixed well, 2 μL of the resulting sample was subjected to LC/MS/MS, and a chromatogram was recorded.
# [6] = system: PC-9 EGFR-Del19-T790M-C797S cells; assay: Inhibition of proliferation of PC-9-EGFR (Del19 T790M C797S) cells, CCK-8; assay type: cell-based; conditions: 72 h, read-out: PC-9-EGFR (Del19 T790M C797S) cell inhibitory activity IC50
# Experimental: PC-9 EGFR-Del19-T790M-C797S cells in the logarithmic growth phase and good conditions were taken, washed with PBS, digested with pancreatin, terminated with a complete medium, collected and added to a centrifuge tube, adjusted to a cell density of 2×10^4 cells/mL, and seeded in a 96-well plate (100 μL/well). Meanwhile, compounds were loaded using a nanoliter pipettor resulting in the final concentrations of the compounds of 1000 nM-0.06 nM, and a control was set, replicate wells for each concentration. After 72 h of incubation in the cell incubator, the assay reagent CCK-8 (manufacturer: Dojindo Laboratories, Beijing; 10 μL/well) was added. After 2 h of incubation in the cell incubator, absorbance was measured at 450 nm on a PerkinElmer Envision microplate reader, and the inhibition rate was calculated.
# as §2, §3
# Chain of EGFR (d746-750/T790M/C797S) (P00533 other isoform, or with tags, fused parts or gaps T790M/C797S/del 1-694/del 746-750 limits assumed): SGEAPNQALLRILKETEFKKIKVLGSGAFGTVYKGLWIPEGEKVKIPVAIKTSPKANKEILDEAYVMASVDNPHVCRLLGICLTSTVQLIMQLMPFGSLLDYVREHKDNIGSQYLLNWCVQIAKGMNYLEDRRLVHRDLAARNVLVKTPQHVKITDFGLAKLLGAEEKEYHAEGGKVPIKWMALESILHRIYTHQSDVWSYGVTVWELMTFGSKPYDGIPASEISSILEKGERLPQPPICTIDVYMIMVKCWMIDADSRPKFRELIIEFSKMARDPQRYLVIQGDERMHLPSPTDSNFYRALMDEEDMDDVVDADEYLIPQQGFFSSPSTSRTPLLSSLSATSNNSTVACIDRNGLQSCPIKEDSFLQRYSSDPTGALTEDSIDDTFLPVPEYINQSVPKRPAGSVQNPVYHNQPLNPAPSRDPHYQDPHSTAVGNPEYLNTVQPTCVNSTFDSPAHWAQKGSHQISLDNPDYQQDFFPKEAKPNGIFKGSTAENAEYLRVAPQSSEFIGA
# Chain of EGFR (d746-750 (d19)/T790M) (P00533 other isoform, or with tags, fused parts or gaps T790M/del 1-668/del 746-750 limits assumed): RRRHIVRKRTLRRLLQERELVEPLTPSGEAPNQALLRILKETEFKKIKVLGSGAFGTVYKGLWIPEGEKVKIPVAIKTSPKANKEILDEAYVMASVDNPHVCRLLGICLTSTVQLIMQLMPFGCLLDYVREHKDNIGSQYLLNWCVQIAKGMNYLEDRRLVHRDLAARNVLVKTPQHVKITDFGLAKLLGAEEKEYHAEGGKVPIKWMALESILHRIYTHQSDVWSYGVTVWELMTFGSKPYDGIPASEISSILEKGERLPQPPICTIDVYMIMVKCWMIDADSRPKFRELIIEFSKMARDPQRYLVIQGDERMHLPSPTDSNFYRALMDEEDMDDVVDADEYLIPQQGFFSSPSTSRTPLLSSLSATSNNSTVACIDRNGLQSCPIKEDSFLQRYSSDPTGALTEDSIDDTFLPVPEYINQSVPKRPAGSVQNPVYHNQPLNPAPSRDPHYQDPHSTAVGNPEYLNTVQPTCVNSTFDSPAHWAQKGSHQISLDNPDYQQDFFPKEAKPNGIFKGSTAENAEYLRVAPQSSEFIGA
smiles,measurement,setting,value
Cc1cc2cc(n1)-c1cnn(C)c1OCCC[C@@H](C1CC1)CN1/C(=N/C2=O)Nc2ccc(OCCN(C)C)cc21 [Example 11],IC50,[1],< 1 nM
same,IC50,[2],0.025 nM
same,IC50,[3],< 5 nM
same,IC50,[4],0.024 nM
Cc1cc2cc(n1)-c1cnn(C)c1OCCC[C@@H](C1CC1)CN1/C(=N/C2=O)Nc2ccc(N[C@H](C)CN(C)C)cc21 [Example 65],IC50,[1],< 1 nM
same,IC50,[3],< 5 nM
CCC1(Nc2ccc3c(c2)N/C2=N\C(=O)c4cc(C)nc(c4)-c4cnn(C)c4OCCC[C@@H](C4CC4)CN23)COC1 [Example 90],CLz,[5]; IV,2.27 L/h/kg
same,AUC(0-inf),"[5]; 1 mg/kg, IV",441 ng·h/mL
same,AUC(0-t),"[5]; 1 mg/kg, IV",441 ng·h/mL
same,MRT last,"[5]; 1 mg/kg, IV",1.65 h
same,half-life,"[5]; 1 mg/kg, IV",94.8 min
same,bioavailability,[5],68.4%
same,AUC(0-inf),"[5]; PO, 10 mg/kg intragastric",3020 ng·h/mL
same,AUC(0-t),"[5]; PO, 10 mg/kg intragastric",3010 ng·h/mL
same,Cmax,"[5]; PO, 10 mg/kg intragastric",352 ng/mL
same,MRT last,"[5]; PO, 10 mg/kg intragastric",6.47 h
same,Tmax,"[5]; PO, 10 mg/kg intragastric",0.5 h
same,half-life,"[5]; PO, 10 mg/kg intragastric",148 min
same,IC50,[1],< 1 nM
same,IC50,[3],< 5 nM
CCC1(CNc2ccc3c(c2)N/C2=N\C(=O)c4cc(C)nc(c4)-c4cnn(C)c4OCCC[C@@H](C4CC4)CN23)COC1 [Example 92],IC50,[1],< 1 nM
same,IC50,[3],< 5 nM
Cc1cc2cc(n1)-c1cnn(C)c1OCCC[C@@H](C1CC1)CN1/C(=N/C2=O)Nc2ccc(NC3CC(N(C)C)C3)cc21 (some centres unmarked) [Example 98],IC50,[2],0.087 nM
same,IC50,[6],< 50 nM
same,IC50,[3],< 5 nM
Cc1cc2cc(n1)-c1cnn(C)c1OCCC[C@@H](C1CC1)CN1/C(=N/C2=O)Nc2ccc(N(C)C3CCN(C)CC3)cc21 [Example 117],CLz,[5]; IV,3.49 L/h/kg
same,AUC(0-inf),"[5]; 1 mg/kg, IV",286 ng·h/mL
same,AUC(0-t),"[5]; 1 mg/kg, IV",284 ng·h/mL
same,MRT last,"[5]; 1 mg/kg, IV",3.3 h
same,half-life,"[5]; 1 mg/kg, IV",131 min
same,bioavailability,[5],29.1%
same,AUC(0-inf),"[5]; PO, 10 mg/kg intragastric",848 ng·h/mL
same,AUC(0-t),"[5]; PO, 10 mg/kg intragastric",826 ng·h/mL
same,Cmax,"[5]; PO, 10 mg/kg intragastric",77.1 ng/mL
same,MRT last,"[5]; PO, 10 mg/kg intragastric",6.79 h
same,Tmax,"[5]; PO, 10 mg/kg intragastric",6 h
same,half-life,"[5]; PO, 10 mg/kg intragastric",250 min
same,IC50,[2],0.12 nM
same,IC50,[6],< 50 nM
[2H]C([2H])([2H])N(C[C@H](C)Nc1ccc2c(c1)N1C[C@H](C3CC3)CCCOc3c(cnn3C)-c3cc(cc(C)n3)C(=O)/N=C/1N2)C([2H])([2H])[2H] [Example 123],IC50,[6],< 50 nM
same,IC50,[3],< 5 nM
same,IC50,[4],0.1 nM
Cc1cc2cc(n1)-c1cnn(C)c1OCCC[C@@H](C1CC1)CN1/C(=N/C2=O)Nc2ccc(N[C@H]3C[C@H](N(C)C)C3)cc21 [Example 128],CLz,[5]; IV,4.52 L/h/kg
same,AUC(0-inf),"[5]; 1 mg/kg, IV",221 ng·h/mL
same,AUC(0-t),"[5]; 1 mg/kg, IV",214 ng·h/mL
same,MRT last,"[5]; 1 mg/kg, IV",1.65 h
same,half-life,"[5]; 1 mg/kg, IV",130 min
same,bioavailability,[5],30.5%
same,AUC(0-inf),"[5]; PO, 10 mg/kg intragastric",662 ng·h/mL
same,AUC(0-t),"[5]; PO, 10 mg/kg intragastric",654 ng·h/mL
same,Cmax,"[5]; PO, 10 mg/kg intragastric",57.8 ng/mL
same,MRT last,"[5]; PO, 10 mg/kg intragastric",6.81 h
same,Tmax,"[5]; PO, 10 mg/kg intragastric",6 h
same,half-life,"[5]; PO, 10 mg/kg intragastric",208 min
same,IC50,[2],0.13 nM
same,IC50,[6],< 50 nM
Cc1cc2cc(n1)-c1cnn(C)c1OCCC[C@@H](C1CC1)CN1/C(=N/C2=O)Nc2cc(N[C@H](C)CCN3CCCCC3)ccc21 [Example 139],IC50,[6],< 50 nM
same,IC50,[3],< 5 nM
same,IC50,[4],0.076 nM
Cc1cc2cc(n1)-c1cnn(C)c1OCCC[C@@H](C1CC1)CN1/C(=N/C2=O)Nc2ccc(N[C@H](C)CN3CCCCC3)cc21 [Example 141],IC50,[6],< 50 nM
same,IC50,[3],< 5 nM
same,IC50,[4],0.072 nM
Cc1cc2cc(n1)-c1cnn(C)c1OCCC[C@@H](C1CC1)CN1/C(=N/C2=O)Nc2ccc(N[C@H](C)CCN3CCCCC3)cc21 [Example 143],IC50,[6],< 50 nM
same,IC50,[3],< 5 nM
same,IC50,[4],0.079 nM
Cc1cc2cc(n1)-c1cnn(C)c1OCCC[C@@H](C1CC1)CN1/C(=N/C2=O)Nc2ccc(N[C@@H](C)CCN3CCCCC3)cc21 [Example 144],IC50,[6],< 50 nM
same,IC50,[3],< 5 nM
same,IC50,[4],0.068 nM
[2H]C([2H])([2H])N(C[C@@H](C)Nc1ccc2c(c1)N/C1=N\C(=O)c3cc(C)nc(c3)-c3cnn(C)c3OCCC[C@@H](C3CC3)CN12)C([2H])([2H])[2H] [Example 146],IC50,[6],< 50 nM
same,IC50,[3],< 5 nM
same,IC50,[4],0.074 nM
Cc1cc2cc(n1)-c1cnn(C)c1OCCC[C@@H](C1CC1)CN1/C(=N/C2=O)Nc2cc(N[C@H]3CC[C@H](O)CC3)ccc21 [Example 151],IC50,[6],< 50 nM
same,IC50,[3],< 5 nM
same,IC50,[4],0.12 nM
